Reference: patent US8314239B2, “Modulators of cystic fibrosis transmembrane conductance regulator” (priority 2008, dated 2012)
Counter-ions that a name gives are not always drawn.

Target: T1, ΔF508-CFTR (Homo sapiens, UniProt P13569, DEL508-508)
T1 construct: expressed in transfected cells
Assay: Membrane potential optical assay for ΔF508-CFTR potentiation (double-addition HTS, FLIPR III)
Assay type: cell-based
Settings: for Emax: 100% efficacy is the maximum response obtained with 4-methyl-2-(5-phenyl-1H-pyrazol-3-yl)phenol
Source text: Membrane Potential Optical Methods for Assaying ΔF508-CFTR Modulation Properties of Compounds
The assay utilizes fluorescent voltage sensing dyes to measure changes in membrane potential using a fluorescent plate reader (e.g., FLIPR III, Molecular Devices, Inc.) as a readout for increase in functional ΔF508-CFTR in NIH 3T3 cells. The driving force for the response is the creation of a chloride ion gradient in conjunction with channel activation by a single liquid addition step after the cells have previously been treated with compounds and subsequently loaded with a voltage sensing dye.
To identify potentiators of ΔF508-CFTR, a double-addition HTS assay format was developed. This HTS assay utilizes fluorescent voltage sensing dyes to measure changes in membrane potential on the FLIPR III as a measurement for increase in gating (conductance) of ΔF508 CFTR in temperature-corrected ΔF508 CFTR NIH 3T3 cells. The driving force for the response is a Cl^− ion gradient in conjunction with channel activation with forskolin in a single liquid addition step using a fluorescent plate reader such as FLIPR III after the cells have previously been treated with potentiator compounds (or DMSO vehicle control) and subsequently loaded with a redistribution dye.
Bath Solution #1: (in mM) NaCl 160, KCl 4.5, CaCl2 2, MgCl2 1, HEPES 10, pH 7.4 with NaOH.
Chloride-Free Bath Solution: Chloride Salts in Bath Solution #1 are Substituted with Gluconate Salts.
NIH3T3 mouse fibroblasts stably expressing ΔF508-CFTR are used for optical measurements of membrane potential. The cells are maintained at 37° C. in 5% CO2 and 90% humidity in Dulbecco's modified Eagle's medium supplemented with 2 mM glutamine, 10% fetal bovine serum, 1×NEAA, β-ME, 1× pen/strep, and 25 mM HEPES in 175 cm^2 culture flasks. For all optical assays, the cells were seeded at ˜20,000/well in 384-well matrigel-coated plates and cultured for 2 hrs at 37° C. before culturing at 27° C. for 24 hrs. for the potentiator assay. For the correction assays, the cells are cultured at 27° C. or 37° C. with and without compounds for 16-24 hours. Electrophysiological Assays for assaying ΔF508-CFTR modulation properties of compounds.
Compounds of the invention are useful as modulators of ATP binding cassette transporters. Examples of activities and efficacies of the compounds of Formula (I) are shown below in Table 3. The compound activity is illustrated with “+++” if activity was measured to be less than 2.0 μM, “++” if activity was measured to be from 2 μM to 5.0 μM, “+” if activity was measured to be greater than 5.0 μM, and “−” if no data was available. The efficacy is illustrated with “+++” if efficacy was calculated to be greater than 100%, “++” if efficacy was calculated to be from 100% to 25%, “+” if efficacy was calculated to be less than 25%, and “−” if no data was available. It should be noted that 100% efficacy is the maximum response obtained with 4-methyl-2-(5-phenyl-1H-pyrazol-3-yl)phenol.

T1 sequence (P13569 with tags, fused parts or gaps DEL508-508): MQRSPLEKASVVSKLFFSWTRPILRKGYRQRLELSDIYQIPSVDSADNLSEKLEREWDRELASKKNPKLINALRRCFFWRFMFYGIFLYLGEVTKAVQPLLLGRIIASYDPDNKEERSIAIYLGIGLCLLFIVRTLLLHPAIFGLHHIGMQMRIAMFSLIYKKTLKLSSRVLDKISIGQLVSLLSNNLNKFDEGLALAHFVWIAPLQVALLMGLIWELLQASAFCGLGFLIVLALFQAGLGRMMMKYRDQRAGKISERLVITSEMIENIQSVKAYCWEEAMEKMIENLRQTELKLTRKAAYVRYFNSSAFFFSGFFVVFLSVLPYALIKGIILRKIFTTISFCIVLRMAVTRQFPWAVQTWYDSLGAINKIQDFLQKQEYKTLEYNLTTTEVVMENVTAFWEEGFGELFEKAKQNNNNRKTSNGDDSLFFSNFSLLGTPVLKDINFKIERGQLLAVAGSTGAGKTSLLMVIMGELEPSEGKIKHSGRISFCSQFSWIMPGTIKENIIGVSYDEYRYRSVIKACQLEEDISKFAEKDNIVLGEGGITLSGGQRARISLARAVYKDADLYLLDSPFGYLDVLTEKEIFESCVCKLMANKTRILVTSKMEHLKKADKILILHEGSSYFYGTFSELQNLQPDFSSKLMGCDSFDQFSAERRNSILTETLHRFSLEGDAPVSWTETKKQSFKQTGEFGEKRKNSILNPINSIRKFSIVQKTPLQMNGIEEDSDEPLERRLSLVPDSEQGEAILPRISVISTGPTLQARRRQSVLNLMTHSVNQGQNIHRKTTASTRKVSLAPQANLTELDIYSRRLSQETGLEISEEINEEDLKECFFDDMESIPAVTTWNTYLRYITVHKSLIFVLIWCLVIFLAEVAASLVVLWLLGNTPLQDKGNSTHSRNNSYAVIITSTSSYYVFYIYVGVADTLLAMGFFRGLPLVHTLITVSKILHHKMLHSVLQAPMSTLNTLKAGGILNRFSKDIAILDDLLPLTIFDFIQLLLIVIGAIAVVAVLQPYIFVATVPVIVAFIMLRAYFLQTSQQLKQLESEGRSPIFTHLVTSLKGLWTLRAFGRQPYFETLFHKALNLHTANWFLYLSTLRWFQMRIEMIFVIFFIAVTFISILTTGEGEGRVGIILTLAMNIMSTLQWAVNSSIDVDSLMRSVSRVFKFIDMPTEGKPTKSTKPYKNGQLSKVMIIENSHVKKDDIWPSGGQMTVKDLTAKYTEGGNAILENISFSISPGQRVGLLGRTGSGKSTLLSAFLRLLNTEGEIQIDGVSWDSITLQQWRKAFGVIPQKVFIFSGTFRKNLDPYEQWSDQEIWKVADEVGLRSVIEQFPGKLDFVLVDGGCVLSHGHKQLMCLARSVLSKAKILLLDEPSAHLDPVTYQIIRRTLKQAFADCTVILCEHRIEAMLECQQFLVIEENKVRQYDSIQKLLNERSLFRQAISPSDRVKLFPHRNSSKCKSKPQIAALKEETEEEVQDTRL

Compound: Cc1cc(N2C3CCC2CC3)ncc1NC(=O)c1c[nH]c2cccc(C)c2c1=O [Compound 1, N-(6-(7-azabicyclo[2.2.1]heptan-7-yl)-4-methylpyridin-3-yl)-5-methyl-4-oxo-1,4-dihydroquinoline-3-carboxamide hydrochloride]
- EC50: < 2000 nM
- Emax: 25 to 100%

Compound: O=C(Nc1ccc(N2C3CCC2CC3)nc1C(F)(F)F)c1c[nH]c2cccc(C(F)(F)F)c2c1=O [Compound 2, N-(6-(7-azabicyclo[2.2.1]heptan-7-yl)-2-(trifluoromethyl)pyridin-3-yl)-4-oxo-5-(trifluoromethyl)-1,4-dihydroquinoline-3-carboxamide]
- EC50: < 2000 nM
- Emax: 25 to 100%

Compound: Cc1cccc2[nH]cc(C(=O)Nc3ccc(N4C5CCC4CC5)nc3C(F)(F)F)c(=O)c12 [Compound 3]
- EC50: < 2000 nM
- Emax: 25 to 100%
